We go through 56 compounds from patent publication US7517840B2, “Optimized perfumery for rinse-off products” (Givaudan Fragrances Corporation, priority 2005, dated 2009).

Values joined by “and” are separate entries in the source; they are usually repeats but may differ in a detail not shown here. Equal entries are not always repeated. Where two headings read alike, the source gives them in different places.

For series [1] the following is noted: cited from earlier work; for Odor Detection Threshold: Table 24, Floral fragrance; for exp ODT water: Booleans database.
The nature of series [2]: GC-MS headspace release profile of perfume in shampoo, 1/100 dilution in water. Type of series: physicochemical. The note with it: Tropical Fruit Perfume. The protocol:
Experimental Procedure: Individual odorant to be tested was added to 20 g of shampoo formulation (see formula below in Table 4) at 0.1%.
A 10 gram sample of formulation and fragrance was added to an empty 1000 ml pyrex beaker. This beaker was then filled with 1000 ml of 120 F tap water. Beaker with diluted shampoo sample was then immediately placed into a semi-enclosed plexiglass chamber.
Headspace Sampling: Once beaker was placed into chamber a Carboxan SPME field fiber was held at the top-side opening of the chamber over the beaker containing the sample. […] […] Top of plexiglass chamber was held open for entire 5 minutes of headspace sampling.

For the compound `CC(=O)OC1CC2CC1C1CC=CC21` (stereo not drawn), the “Odor Detection Threshold” value in series [1] is on record as 50 ppb or less.
For `C=CC(C)(O)CCC=C(C)CC` (mixture of isomers) [ETHYL LINALOOL], the “GC Abundance” value is on record as 5000 in series [2] (20 seconds), 10000 in series [2] (30 seconds), 10000 in series [2] (40 seconds) and 10000 in series [2] (50 seconds).
For the compound `CC=Cc1ccc(O)c(OC)c1` [1-Hydroxy-2-methoxy-4-propenylbenzene], the “exp ODT water” value in series [1] is recorded as 30-40 ppb.
With `CCCCCCCC=O` [1-Octanal], in series [1], the “exp ODT water” value is given as 30 ppb.
`Cc1ccc(C(C)C)c(O)c1` [5-Methyl-2-isopropylphenol]: the “exp ODT water” value in series [1] was 400 ppb.
Take `CC(C)=CCCC(C)CCCC(C)C=O` (stereo not drawn) [ADOXAL, 2,6,10-Trimethyl-9-undecenal]: the “GC Abundance” value was determined as 300 in series [2] (40 seconds) and 3000 in series [2] (50 seconds).
For the compound `CCCCCC1CCC(=O)O1` (stereo not drawn) [ALDEHYDE C-18], the “GC Abundance” value in series [2] (20 seconds) was determined as 2000; in series [2] (30 seconds), 2000; in series [2] (40 seconds), 4000; in series [2] (50 seconds), 4000.
As for `C=CCOC(=O)CCC1CCCCC1` [ALLYL CYCLOHEXYL PROPIONATE], the figures for the “GC Abundance” value in series [2] (40 seconds) and in series [2] (50 seconds) were 7000 and 10000, respectively.
In the case of `C=CCOC(=O)CCCCCC` [ALLYL HEPTOATE], the “GC Abundance” value in series [2] (20 seconds) is on record as 4000; in series [2] (30 seconds) it was 10000; in series [2] (40 seconds) it was 12000; in series [2] (50 seconds), 12000.
As for `CC1(C)CCC[C@]2(C)[C@H]3CCO[C@]3(C)CC[C@@H]12` [AMBROXAN], in series [2] (50 seconds), the “GC Abundance” value amounted to 1000.
Regarding `CC/C(=C\CC1CC=C(C)C1(C)C)CO` (stereo not drawn) [BACDANOL], the “GC Abundance” value was 100 in series [2] (40 seconds) and 5000 in series [2] (50 seconds).
As for `CC(=O)OCc1ccccc1` [BENZYL ACETATE], the “GC Abundance” value in series [2] (20 seconds) turned out to be 12000; in series [2] (30 seconds) it was 17000; in series [2] (40 seconds) it was 18000; in series [2] (50 seconds), 18000.
On to `OCc1ccccc1` [BENZYL ALCOHOL], for which the “GC Abundance” value in series [2] (40 seconds) was found to be 50; in series [2] (50 seconds), 100.
As to `CCC(=O)OCc1ccccc1` [BENZYL PROPIONATE], the “GC Abundance” value is 2000 in series [2] (20 seconds), 6000 in series [2] (30 seconds), 6000 in series [2] (40 seconds) and 6000 in series [2] (50 seconds).
For the compound `C/C=C/C(=O)C1=C(C)CCCC1(C)C` [BETA DAMASCONE FAB, β-damascone], the “Odor Detection Threshold” value in series [1] was 50 ppb or less. Further, the ODT in series [1] (Table 30, berry note) is on record as 50 ppb or less.
On to `CCCCOC(C)=O` [Butyl acetate], for which the “exp ODT water” value in series [1] is 44-88 ppb.
In the case of `Cc1ccc2c(c1)OCC(=O)CO2` [CALONE], the “GC Abundance” value in series [2] (50 seconds) came out at 1000.
Regarding `CC/C=C\CCO` [CIS-3-HEXEN-1-OL], the “GC Abundance” value in series [2] (20 seconds), in series [2] (30 seconds), in series [2] (40 seconds) and in series [2] (50 seconds) was 14000 in each case.
Turning to `CC/C=C\CCOC(C)=O` [CIS-3-HEXENYL ACETATE], the “GC Abundance” value in series [2] (20 seconds) is on record as 5000; in series [2] (30 seconds), 14000; in series [2] (40 seconds) it was 14000; in series [2] (50 seconds) it was 14000.
Take `CC(C)=CCCC(C)CCO` (stereo not drawn) [CITRONELLOL AJ, FCC, CITRONELLOL]: the “GC Abundance” value in series [2] (20 seconds), in series [2] (30 seconds), in series [2] (40 seconds) and in series [2] (50 seconds) was 7000 each time.
With `CC=CC(=O)C1=C(C)C=CCC1(C)C` [DAMASCENONE, 1-(2,6,6-Trimethylcyclohexa-1,3-dienyl)-2-buten-1-one], the “exp ODT water” value in series [1] is listed as 0.002 ppb. Also, the “GC Abundance” value in series [2] (50 seconds) is on record as 1000.
In the case of `CCC(C)(O)CCC=C(C)C` (stereo not drawn) [DIHYDROLINALOOL], the “GC Abundance” value in series [2] (20 seconds), in series [2] (30 seconds), in series [2] (40 seconds) and in series [2] (50 seconds) was 3000 throughout.
With `C=CC(C)CCCC(C)(C)O` (stereo not drawn) [DIHYDROMYRCENOL], the “GC Abundance” value was found to be 500 in series [2] (10 seconds); 15000 in series [2] (20 seconds); 15000 in series [2] (30 seconds); 15000 in series [2] (40 seconds); 15000 in series [2] (50 seconds).
Take `CC(=O)OC(C)(C)Cc1ccccc1` [DIMETHYL BENZYL CARBINYL ACETATE]: the “GC Abundance” value in series [2] (30 seconds) came to 2000; in series [2] (40 seconds), 8000; in series [2] (50 seconds) it was 8000.
Consider `CCCC(=O)OCC` [ETHYL BUTYRATE, Ethyl butyrate], for which, in series [1], the “exp ODT water” value is listed as 1 ppb. The “GC Abundance” value in series [2] (10 seconds) is 2800; in series [2] (20 seconds), 2800; in series [2] (30 seconds), 2800; in series [2] (40 seconds) it was 2000; in series [2] (50 seconds) it was 800.
Consider `CCOC(=O)C1OC1c1ccccc1` (stereo not drawn) [ETHYL PHENYL GLYCIDATE], for which the ODT in series [1] (Table 30, berry note) is 50 ppb or less.
As to `O=C1CCCCCCCCCCCC(=O)OCCO1` [ETHYLENE BRASSYLATE], in series [2] (50 seconds), the “GC Abundance” value was 20.
On the same count and under the same terms, then `O=C1CCCCCCCCCCCCCCO1` [EXALTOLIDE TOTAL], with 50.
For `CCOC(=O)C1OC1(C)c1ccccc1` (stereo not drawn) [Ethyl 2,3-epoxy-3-methyl-3-phenylpropionate], the “exp ODT water” value in series [1] was 25 ppb.
Take `CC(C)c1cccc(C(C)CC=O)c1` (stereo not drawn) [FLORHYDRAL]: the “Odor Detection Threshold” value in series [1] is given as 50 ppb or less. Moreover, the “GC Abundance” value in series [2] (40 seconds) is reported as 9000; in series [2] (50 seconds) it was 10000.
`CC(C)CC1CC(C)(O)CCO1` (stereo not drawn) [FLOROL]: the “GC Abundance” value in series [2] (40 seconds) worked out at 10000; in series [2] (50 seconds) it was 15000.
In the case of `CCOC(=O)CC1(C)OCCO1` [FRUCTONE], the ODT in series [1] (Table 17, apple note compounds) is recorded as 50 ppb or less. The “GC Abundance” value in series [2] (20 seconds) amounted to 3000; in series [2] (30 seconds), 5000; in series [2] (40 seconds) it was 5000; in series [2] (50 seconds), 5000.
Take `CCCCCCC1CCC(=O)O1` (stereo not drawn) [GAMMA-DECALACTONE, 5-Hexyldihydro-2(3H)-furanone]: the “GC Abundance” value in series [2] (40 seconds) is listed as 4000; in series [2] (50 seconds), 7000.
As to `CCCCCC1C(=O)CCC1CC(=O)OC` (stereo not drawn) [HEDIONE], the “Odor Detection Threshold” value in series [1] is recorded as 50 ppb or less. Moreover, the “GC Abundance” value in series [2] (50 seconds) was found to be 4000.
Consider `CC(C=O)Cc1ccc2c(c1)OCO2` (stereo not drawn) [HELIONAL], for which the “GC Abundance” value turned out to be 500 in series [2] (40 seconds) and 5000 in series [2] (50 seconds).
As for `CCCCCCC(C=O)=Cc1ccccc1` [HEXYL CINNAMIC ALDEHYDE, hexyl cinnamic aldehyde], the entries for the “GC Abundance” value in series [2] (40 seconds) and in series [2] (50 seconds) were 2000 and 9000, respectively.
`C=C(C)C1CC=C(C)C(=O)C1` (stereo not drawn) [I-1-Methyl-4-isopropenyl-6-cyclohexen-2-one]: the “exp ODT water” value in series [1] is reported as 50 ppb.
Regarding `CC(=O)/C=C/C1C(C)=CCCC1(C)C` (stereo not drawn) [IONONE ALPHA, alpha ionone], the “exp ODT water” value in series [1] is reported as 0.4-10 ppb.
Consider `CC/C=C\CCOC(=O)OC` [LIFFAROME], for which the “GC Abundance” value in series [2] (20 seconds), in series [2] (30 seconds), in series [2] (40 seconds) and in series [2] (50 seconds) was 3000 in each case.
In the case of `CC1OC(C)C2Cc3ccccc3C2O1` (stereo not drawn) [MAGNOLAN/CORPS 719], the results for the “GC Abundance” value in series [2] (40 seconds) and in series [2] (50 seconds) were 1000 and 3000, respectively.
On to `CCCCCCCCCC=CC=O` [MANDARIN ALDEHYDE], for which the ODT in series [1] (Table 32, citrus note) is reported as 50 ppb or less.
As for `CC(C)=CCCC(C)C=O` (stereo not drawn) [MELONAL, 2,6-Dimethyl-5-heptenal], in series [1], the “exp ODT water” value is reported as 16 ppb and the “odor detection threshold values in water” value is 16 ppb. Moreover, the ODT in series [1] (Table 26, cucumber-melon note) is reported as 50 ppb or less.
As to `COC(=O)c1ccccc1N` [METHYL AN[…], METHYL ANTHRANILATE], in series [1], the “Odor Detection Threshold” value is 50 ppb or less.
On to `COC(=O)c1c(C)cc(O)c(C)c1O` [METHYL ATRATATE], for which the “GC Abundance” value in series [2] (50 seconds) is 50.
Take `CCCCCOC(C)=O` [Pentyl Acetate]: the “exp ODT water” value in series [1] is listed as 43 ppb.
With `CCCCCOC(=O)CCC` [Pentyl butyrate], the “exp ODT water” value in series [1] is 44-87 ppb.
In the case of `CC1=CCC(CCC(C)C(C)O)C1(C)C` (stereo not drawn) [SANDALORE], the “GC Abundance” value in series [2] (50 seconds) was found to be 2000.
As to `CC1=C(O)C(=O)C(C)O1` (stereo not drawn) [STRAWBERRY FURANONE], the ODT in series [1] (Table 30, berry note) is on record as 50 ppb or less.
Regarding `CC(=O)OC(C)(C)C1CC=C(C)CC1` (stereo not drawn) [TERPINYL ACETATE], the entries for the “GC Abundance” value in series [2] (30 seconds), in series [2] (40 seconds) and in series [2] (50 seconds) were 1000, 9000 and 9000, respectively.
With `CC1=CC(C)C(C=O)CC1` (stereo not drawn) [TRIPLAL], the “GC Abundance” value came out at 1000 in series [2] (10 seconds); 14000 in series [2] (20 seconds); 14000 in series [2] (30 seconds); 10000 in series [2] (40 seconds); 6000 in series [2] (50 seconds).
`CCC=C(C)C(O)CCCCC` (stereo not drawn) [UNDECAVERTOL, 4-Methyl-3-decen-5-ol]: the “GC Abundance” value in series [2] (40 seconds) and in series [2] (50 seconds) was 10000 throughout.
With `COc1cc(C=O)ccc1O` [VANILLIN NF, 4-Hydroxy-3-methoxybenzaldehyde], the “exp ODT water” value in series [1] is 25-58 ppb and 20-200 ppb.
Take `CC(=O)OC1CCC(C(C)(C)C)CC1` (stereo not drawn) [VERTENEX HC]: the results for the “GC Abundance” value in series [2] (30 seconds), in series [2] (40 seconds) and in series [2] (50 seconds) were 2000, 8000 and 10000, respectively.
Regarding `CCC(=O)OC/C=C(\C)CCC=C(C)C` [trans-3,7-Dimethyl-2,6-octadien-1-yl propanoate], in series [1], the “exp ODT water” value is on record as 10 ppb.
Take `C/C=C/C(=O)C1C(C)C=CCC1(C)C` (stereo not drawn) [δ-DAMASCONE]: the ODT in series [1] (Table 28, fig note) was 50 ppb or less.
Regarding VERTOFIX COEUR, the “GC Abundance” value in series [2] (50 seconds) was determined as 50.
